Laboratory results taken from patent US20240150298A1, “ANTIBACTERIAL COMPOUNDS” (Blacksmith Medicines, Inc., priority 2021, published 2024).
Converted amounts (≈) assume the structure as drawn.

How the values were obtained:
[1] = molecular target: K. pneumoniae LpxC (Klebsiella pneumoniae subsp. pneumoniae, UniProt A6T4N9); experiment: LpxC Binding Assay (Rapid Fire MS assay); assay type: biochemical
[2] = molecular target: E. coli LpxC (Escherichia coli, UniProt P0A725); experiment: LpxC Binding Assay (Rapid Fire MS assay); assay type: biochemical
Sequence of E. coli LpxC (P0A725 whole entry): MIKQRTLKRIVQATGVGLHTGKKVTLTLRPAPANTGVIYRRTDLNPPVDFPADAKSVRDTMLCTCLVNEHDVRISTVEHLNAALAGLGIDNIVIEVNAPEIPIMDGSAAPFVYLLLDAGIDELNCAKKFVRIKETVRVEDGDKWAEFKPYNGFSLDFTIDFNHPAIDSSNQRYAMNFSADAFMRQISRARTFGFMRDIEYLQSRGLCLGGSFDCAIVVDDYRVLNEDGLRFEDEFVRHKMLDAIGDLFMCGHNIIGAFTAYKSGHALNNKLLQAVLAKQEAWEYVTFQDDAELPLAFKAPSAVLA
Experimental: (§1) IC50 values against E. coli and P. aeruginosa LpxC are determined using a Rapid Fire MS assay as previously described J. Med. Chem. 2012, 55, 1662-1670.

[3] = molecular target: T1, P. aeruginosa LpxC (Pseudomonas aeruginosa, UniProt P47205); experiment: LpxC Binding Assay (Rapid Fire MS assay); assay type: biochemical
T1 sequence (P47205 1-303): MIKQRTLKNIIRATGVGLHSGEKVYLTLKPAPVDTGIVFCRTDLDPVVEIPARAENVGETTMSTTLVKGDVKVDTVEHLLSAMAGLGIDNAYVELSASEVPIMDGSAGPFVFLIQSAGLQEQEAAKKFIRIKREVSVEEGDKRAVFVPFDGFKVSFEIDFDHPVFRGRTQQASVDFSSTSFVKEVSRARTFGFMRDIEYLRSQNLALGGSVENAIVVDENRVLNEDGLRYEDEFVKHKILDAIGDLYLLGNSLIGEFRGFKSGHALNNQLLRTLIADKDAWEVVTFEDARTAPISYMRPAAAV
Experimental: as §1

[4] = test system: E. coli ATCC25922; experiment: Bacterial susceptibility testing, MIC by broth microdilution (CLSI); assay type: cell-based; conditions: Escherichia coli, ATCC25922, broth microdilution, 35° C., 18-24 h; read-out: MIC E. coli ATCC25922
In short: (§2)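 Broth microdilution per CLSI in cation-adjusted Mueller-Hinton broth, inoculum 3×10^5–7×10^5 CFU/mL, 2-fold serial drug dilutions in DMSO. Incubated in ambient air at 35° C for 18-24 h. MIC taken as lowest concentration preventing visible growth (OD600 nm<0.05).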

[5] = test system: P. aeruginosa ATCC27835; experiment: as above; assay type: cell-based; conditions: Pseudomonas aeruginosa, ATCC27835, broth microdilution, 35° C., 18-24 h; read-out: MIC P. aeruginosa ATCC27835
In short: as §2

[6] = test system: P. aeruginosa 209 PAO1; experiment: as above; assay type: cell-based; conditions: Pseudomonas aeruginosa, PAO1, broth microdilution, 35° C., 18-24 h; read-out: MIC P. aeruginosa 209 PAO1
In short: as §2

[7] = test system: K. pneumoniae ATCC13883; experiment: as above; assay type: cell-based; conditions: Klebsiella pneumoniae, ATCC13883, broth microdilution, 35° C., 18-24 h; read-out: MIC K. pneumoniae ATCC13883
In short: as §2

Sequence of K. pneumoniae LpxC (A6T4N9 whole entry): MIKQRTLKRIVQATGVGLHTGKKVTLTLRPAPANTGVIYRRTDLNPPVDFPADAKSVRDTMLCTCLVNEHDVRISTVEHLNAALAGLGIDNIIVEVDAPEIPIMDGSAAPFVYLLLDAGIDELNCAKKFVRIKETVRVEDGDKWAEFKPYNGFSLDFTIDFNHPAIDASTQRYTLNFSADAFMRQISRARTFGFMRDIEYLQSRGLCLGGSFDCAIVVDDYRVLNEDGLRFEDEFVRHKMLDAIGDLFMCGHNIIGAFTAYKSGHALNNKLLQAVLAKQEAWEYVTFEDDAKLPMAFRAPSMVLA

## C[C@H](O)c1nccn1[C@@H](/C=C/c1ccc(-c2ccc(OC[C@@H](O)CO)cc2F)cc1)CO [Compound 32, (S)-3-((2-fluoro-4′-((S,E)-4-hydroxy-3-(2-((S)-1-hydroxyethyl)-1H-imidazol-1-yl)but-1-en-1-yl)-[1,1′-biphenyl]-4-yl)oxy)propane-1,2-diol]
[1]
  IC50: 1.8 nM
[2]
  IC50: 1 nM
[3]
  IC50: 13.4 nM
[4]
  MIC: 2 µg/mL (≈ 4.52 µM)
[5]
  MIC: 4 µg/mL (≈ 9.04 µM)
[6]
  MIC: 4 µg/mL (≈ 9.04 µM)
[7]
  MIC: 8 µg/mL (≈ 18.1 µM)
